According to ChEMBL document CHEMBL1759869, “Discovery of spirocyclic sulfonamides as potent Akt inhibitors with exquisite selectivity against PKA” (Bioorg Med Chem Lett, 2011):

biological target: T1, RAC-alpha serine/threonine-protein kinase (Homo sapiens, UniProt P31749); assay: Inhibition of Akt1
T1 sequence (P31749 whole entry): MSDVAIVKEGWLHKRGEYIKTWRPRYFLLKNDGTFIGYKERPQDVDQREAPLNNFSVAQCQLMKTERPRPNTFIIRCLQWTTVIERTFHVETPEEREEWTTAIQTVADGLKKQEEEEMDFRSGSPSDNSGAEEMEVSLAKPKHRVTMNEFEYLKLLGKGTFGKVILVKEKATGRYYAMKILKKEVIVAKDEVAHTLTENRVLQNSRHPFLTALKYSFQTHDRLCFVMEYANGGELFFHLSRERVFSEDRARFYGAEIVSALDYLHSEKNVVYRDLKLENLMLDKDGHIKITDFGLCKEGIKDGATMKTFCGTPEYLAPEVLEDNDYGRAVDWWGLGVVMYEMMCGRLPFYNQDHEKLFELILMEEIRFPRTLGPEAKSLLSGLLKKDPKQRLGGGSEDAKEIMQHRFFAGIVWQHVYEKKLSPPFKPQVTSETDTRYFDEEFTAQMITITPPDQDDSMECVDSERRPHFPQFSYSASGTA

Compound | IC50
CCOCCN(C[C@@H](O)CN1CCCC2(CCN(c3ncnc4[nH]cc(C)c34)C2)C1)S(=O)(=O)c1c(C)cccc1C (some centres undefined) | 2 nM
CCOCCN(C[C@@H](O)CN1CCCC2(CCN(c3ncnc4[nH]cc(C)c34)CC2)C1)S(=O)(=O)c1c(C)cccc1C | 41 nM
CCOCCN(C[C@@H](O)CN1CCCC2(CCN(c3ncncc3C3CC3)C2)C1)S(=O)(=O)c1c(C)cccc1C (some centres undefined) | 12 nM
Cc1cc(F)ccc1S(=O)(=O)NC[C@@H](O)CN1CCC[C@@]2(CCN(c3ncnc(N)c3C3CC3)C2)C1 | 8 nM
Cc1ccc(S(=O)(=O)NC[C@@H](O)CN2CCC[C@@]3(CCN(c4ncnc(N)c4C4CC4)C3)C2)c(C)c1 | 160 nM
Cc1cccc(C)c1S(=O)(=O)N1CCC[C@@H]1[C@@H](O)CN1CCC[C@@]2(CCN(c3ncnc(N)c3C3CC3)C2)C1 | 19 nM
Cc1ccncc1S(=O)(=O)NC[C@@H](O)CN1CCC[C@@]2(CCN(c3ncnc(N)c3C3CC3)C2)C1 | 1100 nM
CCOCCN(C[C@@H](O)CN1CCCC2(CCN(c3ncnc(N)c3C3CC3)C2)C1)S(=O)(=O)c1c(C)cccc1C (mixture of isomers) | 12 nM
Cc1cccc(C)c1S(=O)(=O)N1CCC[C@H]1[C@@H](O)CN1CCC[C@@]2(CCN(c3ncnc(N)c3C3CC3)C2)C1 | 9 nM
Cc1cccc(C)c1S(=O)(=O)NC[C@@H](O)CN1CCC[C@@]2(CCN(c3ncnc(N)c3C3CC3)C2)C1 | 4 nM
Cc1cccc(C)c1S(=O)(=O)N1CCC[C@H]1[C@H](O)CN1CCC[C@@]2(CCN(c3ncnc(N)c3C3CC3)C2)C1 | 250 nM
Cc1noc(C)c1S(=O)(=O)NC[C@@H](O)CN1CCC[C@@]2(CCN(c3ncnc(N)c3C3CC3)C2)C1 | 3 nM
Cc1ccccc1S(=O)(=O)NC[C@@H](O)CN1CCC[C@@]2(CCN(c3ncnc(N)c3C3CC3)C2)C1 | 9 nM
Nc1ncnc(N2CC[C@@]3(CCCN(C[C@H](O)CNS(=O)(=O)c4ccccc4Cl)C3)C2)c1C1CC1 | 9 nM
CCOCCN(C[C@@H](O)CN1CCCC2(CCN(c3ncnc4n[nH]c(C)c34)C2)C1)S(=O)(=O)c1c(C)cccc1C (some centres undefined) | 21 nM
Nc1ncnc(N2CC[C@@]3(CCCN(C[C@H](O)CNS(=O)(=O)c4ccccc4Br)C3)C2)c1C1CC1 | 17 nM
Nc1ncnc(N2CC[C@@]3(CCCN(C[C@H](O)CNS(=O)(=O)c4ccccc4F)C3)C2)c1C1CC1 | 81 nM

system: not listed separately; assay: Inhibition of PKA

Compound | IC50
CCOCCN(C[C@@H](O)CN1CCCC2(CCN(c3ncnc4[nH]cc(C)c34)C2)C1)S(=O)(=O)c1c(C)cccc1C (some centres undefined) | 0.067 µM
CCOCCN(C[C@@H](O)CN1CCCC2(CCN(c3ncnc4[nH]cc(C)c34)CC2)C1)S(=O)(=O)c1c(C)cccc1C | 0.21 µM
CCOCCN(C[C@@H](O)CN1CCCC2(CCN(c3ncnc4[nH]nc(C)c34)C2)C1)S(=O)(=O)c1c(C)cccc1C (some centres undefined) | 0.56 µM
CCOCCN(C[C@@H](O)CN1CCCC2(CCN(c3ncncc3C3CC3)C2)C1)S(=O)(=O)c1c(C)cccc1C (some centres undefined) | 3.4 µM
Cc1cc(F)ccc1S(=O)(=O)NC[C@@H](O)CN1CCC[C@@]2(CCN(c3ncnc(N)c3C3CC3)C2)C1 | 7.8 µM
Cc1ccc(S(=O)(=O)NC[C@@H](O)CN2CCC[C@@]3(CCN(c4ncnc(N)c4C4CC4)C3)C2)c(C)c1 | > 10 µM
Cc1cccc(C)c1S(=O)(=O)N1CCC[C@@H]1[C@@H](O)CN1CCC[C@@]2(CCN(c3ncnc(N)c3C3CC3)C2)C1 | 4.7 µM
Cc1ccncc1S(=O)(=O)NC[C@@H](O)CN1CCC[C@@]2(CCN(c3ncnc(N)c3C3CC3)C2)C1 | > 10 µM
CCOCCN(C[C@@H](O)CN1CCCC2(CCN(c3ncnc(N)c3C3CC3)C2)C1)S(=O)(=O)c1c(C)cccc1C (mixture of isomers) | 2.2 µM
Cc1cccc(C)c1S(=O)(=O)N1CCC[C@H]1[C@@H](O)CN1CCC[C@@]2(CCN(c3ncnc(N)c3C3CC3)C2)C1 | 3.9 µM
Cc1cccc(C)c1S(=O)(=O)NC[C@@H](O)CN1CCC[C@@]2(CCN(c3ncnc(N)c3C3CC3)C2)C1 | 3.4 µM
CCOCCN(C[C@@H](O)CN1CCCC2(CCN(c3ncnc4ccccc34)C2)C1)S(=O)(=O)c1c(C)cccc1C (some centres undefined) | 4.7 µM
Cc1cccc(C)c1S(=O)(=O)N1CCC[C@H]1[C@H](O)CN1CCC[C@@]2(CCN(c3ncnc(N)c3C3CC3)C2)C1 | > 10 µM
Cc1noc(C)c1S(=O)(=O)NC[C@@H](O)CN1CCC[C@@]2(CCN(c3ncnc(N)c3C3CC3)C2)C1 | 1.9 µM
Cc1ccccc1S(=O)(=O)NC[C@@H](O)CN1CCC[C@@]2(CCN(c3ncnc(N)c3C3CC3)C2)C1 | 5 µM
Nc1ncnc(N2CC[C@@]3(CCCN(C[C@H](O)CNS(=O)(=O)c4ccccc4Cl)C3)C2)c1C1CC1 | 8.3 µM
Nc1ncnc(N2CC[C@@]3(CCCN(C[C@H](O)CNS(=O)(=O)c4ccccc4Br)C3)C2)c1C1CC1 | 9.4 µM
Nc1ncnc(N2CC[C@@]3(CCCN(C[C@H](O)CNS(=O)(=O)c4ccccc4F)C3)C2)c1C1CC1 | > 10 µM

system: not listed separately; assay: Selectivity ratio of IC50 for PKA to IC50 for Akt1

Compound | Ratio IC50
CCOCCN(C[C@@H](O)CN1CCCC2(CCN(c3ncnc4[nH]cc(C)c34)C2)C1)S(=O)(=O)c1c(C)cccc1C (some centres undefined) | 28
CCOCCN(C[C@@H](O)CN1CCCC2(CCN(c3ncnc4[nH]cc(C)c34)CC2)C1)S(=O)(=O)c1c(C)cccc1C | 5
CCOCCN(C[C@@H](O)CN1CCCC2(CCN(c3ncnc4[nH]nc(C)c34)C2)C1)S(=O)(=O)c1c(C)cccc1C (some centres undefined) | 27
CCOCCN(C[C@@H](O)CN1CCCC2(CCN(c3ncncc3C3CC3)C2)C1)S(=O)(=O)c1c(C)cccc1C (some centres undefined) | 280
Cc1cc(F)ccc1S(=O)(=O)NC[C@@H](O)CN1CCC[C@@]2(CCN(c3ncnc(N)c3C3CC3)C2)C1 | 970
Cc1ccc(S(=O)(=O)NC[C@@H](O)CN2CCC[C@@]3(CCN(c4ncnc(N)c4C4CC4)C3)C2)c(C)c1 | > 63
Cc1cccc(C)c1S(=O)(=O)N1CCC[C@@H]1[C@@H](O)CN1CCC[C@@]2(CCN(c3ncnc(N)c3C3CC3)C2)C1 | 250
Cc1ccncc1S(=O)(=O)NC[C@@H](O)CN1CCC[C@@]2(CCN(c3ncnc(N)c3C3CC3)C2)C1 | > 9
CCOCCN(C[C@@H](O)CN1CCCC2(CCN(c3ncnc(N)c3C3CC3)C2)C1)S(=O)(=O)c1c(C)cccc1C (mixture of isomers) | 180
Cc1cccc(C)c1S(=O)(=O)N1CCC[C@H]1[C@@H](O)CN1CCC[C@@]2(CCN(c3ncnc(N)c3C3CC3)C2)C1 | 430
Cc1cccc(C)c1S(=O)(=O)NC[C@@H](O)CN1CCC[C@@]2(CCN(c3ncnc(N)c3C3CC3)C2)C1 | 850
Cc1cccc(C)c1S(=O)(=O)N1CCC[C@H]1[C@H](O)CN1CCC[C@@]2(CCN(c3ncnc(N)c3C3CC3)C2)C1 | > 40
Cc1noc(C)c1S(=O)(=O)NC[C@@H](O)CN1CCC[C@@]2(CCN(c3ncnc(N)c3C3CC3)C2)C1 | 630
Cc1ccccc1S(=O)(=O)NC[C@@H](O)CN1CCC[C@@]2(CCN(c3ncnc(N)c3C3CC3)C2)C1 | 560
Nc1ncnc(N2CC[C@@]3(CCCN(C[C@H](O)CNS(=O)(=O)c4ccccc4Cl)C3)C2)c1C1CC1 | 920
Nc1ncnc(N2CC[C@@]3(CCCN(C[C@H](O)CNS(=O)(=O)c4ccccc4Br)C3)C2)c1C1CC1 | 550
Nc1ncnc(N2CC[C@@]3(CCCN(C[C@H](O)CNS(=O)(=O)c4ccccc4F)C3)C2)c1C1CC1 | > 120

biological target: T1, RAC-alpha serine/threonine-protein kinase; assay: Inhibition of AKT1-mediated PRAS40 phosphorylation in human LNCaP cells; format: cell-based

Compound | IC50
CCOCCN(C[C@@H](O)CN1CCCC2(CCN(c3ncnc4[nH]cc(C)c34)C2)C1)S(=O)(=O)c1c(C)cccc1C (some centres undefined) | 180 nM
CCOCCN(C[C@@H](O)CN1CCCC2(CCN(c3ncnc4[nH]cc(C)c34)CC2)C1)S(=O)(=O)c1c(C)cccc1C | 1200 nM
CCOCCN(C[C@@H](O)CN1CCCC2(CCN(c3ncncc3C3CC3)C2)C1)S(=O)(=O)c1c(C)cccc1C (some centres undefined) | 740 nM
Cc1cc(F)ccc1S(=O)(=O)NC[C@@H](O)CN1CCC[C@@]2(CCN(c3ncnc(N)c3C3CC3)C2)C1 | 2200 nM
Cc1ccc(S(=O)(=O)NC[C@@H](O)CN2CCC[C@@]3(CCN(c4ncnc(N)c4C4CC4)C3)C2)c(C)c1 | 18000 nM
Cc1cccc(C)c1S(=O)(=O)N1CCC[C@@H]1[C@@H](O)CN1CCC[C@@]2(CCN(c3ncnc(N)c3C3CC3)C2)C1 | 2400 nM
CCOCCN(C[C@@H](O)CN1CCCC2(CCN(c3ncnc(N)c3C3CC3)C2)C1)S(=O)(=O)c1c(C)cccc1C (mixture of isomers) | 470 nM
Cc1cccc(C)c1S(=O)(=O)N1CCC[C@H]1[C@@H](O)CN1CCC[C@@]2(CCN(c3ncnc(N)c3C3CC3)C2)C1 | 690 nM
Cc1cccc(C)c1S(=O)(=O)NC[C@@H](O)CN1CCC[C@@]2(CCN(c3ncnc(N)c3C3CC3)C2)C1 | 900 nM
CCOCCN(C[C@@H](O)CN1CCCC2(CCN(c3ncnc4ccccc34)C2)C1)S(=O)(=O)c1c(C)cccc1C (some centres undefined) | 2400 nM
Cc1cccc(C)c1S(=O)(=O)N1CCC[C@H]1[C@H](O)CN1CCC[C@@]2(CCN(c3ncnc(N)c3C3CC3)C2)C1 | 13000 nM
Cc1noc(C)c1S(=O)(=O)NC[C@@H](O)CN1CCC[C@@]2(CCN(c3ncnc(N)c3C3CC3)C2)C1 | 490 nM
Cc1ccccc1S(=O)(=O)NC[C@@H](O)CN1CCC[C@@]2(CCN(c3ncnc(N)c3C3CC3)C2)C1 | 1200 nM
Nc1ncnc(N2CC[C@@]3(CCCN(C[C@H](O)CNS(=O)(=O)c4ccccc4Cl)C3)C2)c1C1CC1 | 1900 nM
CCOCCN(C[C@@H](O)CN1CCCC2(CCN(c3ncnc4n[nH]c(C)c34)C2)C1)S(=O)(=O)c1c(C)cccc1C (some centres undefined) | 310 nM
Nc1ncnc(N2CC[C@@]3(CCCN(C[C@H](O)CNS(=O)(=O)c4ccccc4Br)C3)C2)c1C1CC1 | 2000 nM
Nc1ncnc(N2CC[C@@]3(CCCN(C[C@H](O)CNS(=O)(=O)c4ccccc4F)C3)C2)c1C1CC1 | 14000 nM
